Measurements: patent US20140120060A1, “TREATMENT OF RHEUMATOID ARTHRITIS AND ASTHMA USING PI3 KINASE INHIBITORS” (INFINITY PHARMACEUTICALS, INC., priority 2012, published 2014)
“Also recorded” adds a separate entry of the source.

Key:
Murine B-cell = Murine B-cell proliferation; format: cell-based; conditions: Mus musculus
TL2/TLR6 = assay: PAM2CSK4 induced cytokine production in PBMCs; format: cell-based, human
Protocol: These experiments were conducted using PBMCs.
PAM2CSK4 signals through TL2/TLR6, which plays a role in atherosclerosis, colitis, ischemic injury, e.g., cardiac events and stroke.

[1] = test system: established type II collagen-induced arthritis; assay: Rat collagen-induced arthritis model (established); format: in vivo
Protocol: Etanercept (10 mg/kg) was administered subcutaneously on days 10 and 13 as a positive control. The study was terminated on day 17.

[2] = test system: hemodynamic and electrocardiographic parameters; assay: Cardiovascular study in instrumented cynomolgus monkey; format: in vivo
Description: Four non-naive, male monkeys implanted with radiotelemetry transmitters were utilized during the conduct of this study.

[3] = test system: ovalbumin-induced pulmonary inflammation; assay: Rat ovalbumin allergic asthma model
PI3K δ = PI3K δ (Homo sapiens, UniProt O00329); assay: Clinical study in healthy adult subjects: basophil activation (CD63 on CCR3+ basophils); format: in vivo; parameters: from tissue; host or cells: blood basophils (CCR3+) of healthy adult subjects
Chain of PI3K δ (O00329 whole entry): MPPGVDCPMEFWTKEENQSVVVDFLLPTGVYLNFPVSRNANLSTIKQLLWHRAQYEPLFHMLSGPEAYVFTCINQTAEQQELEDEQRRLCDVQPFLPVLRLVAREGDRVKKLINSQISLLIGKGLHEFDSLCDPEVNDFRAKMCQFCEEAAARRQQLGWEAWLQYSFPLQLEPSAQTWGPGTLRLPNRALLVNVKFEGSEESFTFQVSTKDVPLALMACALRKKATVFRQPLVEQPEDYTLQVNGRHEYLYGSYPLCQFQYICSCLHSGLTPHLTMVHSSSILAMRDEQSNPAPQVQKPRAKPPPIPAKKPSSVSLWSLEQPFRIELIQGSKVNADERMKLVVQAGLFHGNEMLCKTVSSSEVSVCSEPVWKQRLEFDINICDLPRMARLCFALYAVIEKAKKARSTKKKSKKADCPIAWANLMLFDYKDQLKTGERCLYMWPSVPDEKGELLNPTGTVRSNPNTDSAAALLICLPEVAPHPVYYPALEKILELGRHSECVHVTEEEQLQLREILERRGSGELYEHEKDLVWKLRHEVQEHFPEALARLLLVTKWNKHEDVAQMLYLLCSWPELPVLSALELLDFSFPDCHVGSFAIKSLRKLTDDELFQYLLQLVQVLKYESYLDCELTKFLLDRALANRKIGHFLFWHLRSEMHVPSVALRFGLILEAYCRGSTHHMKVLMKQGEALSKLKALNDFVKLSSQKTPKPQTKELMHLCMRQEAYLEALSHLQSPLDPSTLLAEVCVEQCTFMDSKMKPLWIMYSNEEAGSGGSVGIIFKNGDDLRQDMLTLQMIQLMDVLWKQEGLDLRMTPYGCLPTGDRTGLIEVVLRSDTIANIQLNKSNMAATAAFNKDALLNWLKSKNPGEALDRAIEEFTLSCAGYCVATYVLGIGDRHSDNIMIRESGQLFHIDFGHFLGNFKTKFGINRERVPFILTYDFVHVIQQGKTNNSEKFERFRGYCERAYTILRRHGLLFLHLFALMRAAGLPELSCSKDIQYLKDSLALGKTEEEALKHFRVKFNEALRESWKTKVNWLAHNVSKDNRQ
Chain of PI3K δ (P27986 whole entry partner): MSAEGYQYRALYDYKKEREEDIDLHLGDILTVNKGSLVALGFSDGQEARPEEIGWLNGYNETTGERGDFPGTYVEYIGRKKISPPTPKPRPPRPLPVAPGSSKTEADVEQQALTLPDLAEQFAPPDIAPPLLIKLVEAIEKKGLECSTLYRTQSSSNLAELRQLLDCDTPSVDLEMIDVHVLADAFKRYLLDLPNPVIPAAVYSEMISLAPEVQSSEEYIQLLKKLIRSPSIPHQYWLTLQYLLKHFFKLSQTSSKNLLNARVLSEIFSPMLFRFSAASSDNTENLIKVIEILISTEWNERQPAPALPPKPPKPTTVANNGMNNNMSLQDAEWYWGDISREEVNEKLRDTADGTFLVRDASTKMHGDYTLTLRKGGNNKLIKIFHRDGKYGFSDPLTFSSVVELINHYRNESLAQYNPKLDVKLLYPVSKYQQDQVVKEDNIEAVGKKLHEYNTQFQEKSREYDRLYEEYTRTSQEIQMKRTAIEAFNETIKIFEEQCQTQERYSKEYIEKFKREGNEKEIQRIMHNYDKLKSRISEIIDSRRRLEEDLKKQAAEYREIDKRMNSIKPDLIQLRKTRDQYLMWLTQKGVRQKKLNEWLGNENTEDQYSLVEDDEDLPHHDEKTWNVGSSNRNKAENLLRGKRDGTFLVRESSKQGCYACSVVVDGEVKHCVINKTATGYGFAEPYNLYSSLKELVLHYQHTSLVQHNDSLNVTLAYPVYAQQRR

SMILES: C[C@H](Nc1ncnc2[nH]cnc12)c1cc2cccc(Cl)c2c(=O)n1-c1ccccc1 [Compound 292]
- EC50 (Murine B-cell): 0.5 nM
- PAM2CSK4 induced IL-1 production (TL2/TLR6): Inhibited
- PAM2CSK4 induced IL-6 production (TL2/TLR6): Inhibited
- PAM2CSK4 induced IL-8 production (TL2/TLR6): Inhibited
- PAM2CSK4 induced TNF-α production (TL2/TLR6): Inhibited
- mean ankle diameter at the end of the treatment period vs vehicle ([1]; PO QD days 10-16, all doses 0.5-10 mg/kg, not at 0.1 mg/kg): significantly decreased
- serum IgE levels vs vehicle controls ([1]; rat CIA model): Significant increases
- summed ankle histological scores ([1]; rat CIA model): prevented inflammation and protected joint bone and cartilage
- hemodynamic or electrocardiographic parameters ([2]; male cynomolgus monkeys, single oral dose of 5, 30 and 150 mg/kg): No Compound 292-related effects
- waveform abnormalities or arrhythmias ([2]; up to 150 mg/kg): no waveform abnormalities or arrhythmias
- levels of TNF-α, KC/GRO, IL-13 and IL-5 in the BAL ([3]; 10 mg/kg PO): inhibited; also recorded: significantly suppressed
- neutrophils and eosinophils in the BAL ([3]; 1 and 10 mg/kg PO, 48 hours after re-challenge): significantly reduced
- leukocyte migration into the bronchoalveolar space ([3]; FIG. 16): inhibited
- Emax (reduction of basophil activation vs plasma concentration) (PI3K δ; FIG. 21): 85%
- basophil activation (PI3K δ; single and multiple doses, all dose levels, maximum at 1 hr post dose): dose-dependent reduction
